Results reported in ChEMBL document CHEMBL1201862, “PubChem BioAssay data set” (2004).
The source made the active and inactive calls.

Columns and labels:
[1] = target: T1, Alkaline phosphatase, tissue-nonspecific isozyme (Homo sapiens, UniProt P05186); experiment: human TNAP enzyme inhibitors, SAR follow-up, biochemical, luminescent, dose response (AID 1056)
T1 sequence (P05186 whole entry): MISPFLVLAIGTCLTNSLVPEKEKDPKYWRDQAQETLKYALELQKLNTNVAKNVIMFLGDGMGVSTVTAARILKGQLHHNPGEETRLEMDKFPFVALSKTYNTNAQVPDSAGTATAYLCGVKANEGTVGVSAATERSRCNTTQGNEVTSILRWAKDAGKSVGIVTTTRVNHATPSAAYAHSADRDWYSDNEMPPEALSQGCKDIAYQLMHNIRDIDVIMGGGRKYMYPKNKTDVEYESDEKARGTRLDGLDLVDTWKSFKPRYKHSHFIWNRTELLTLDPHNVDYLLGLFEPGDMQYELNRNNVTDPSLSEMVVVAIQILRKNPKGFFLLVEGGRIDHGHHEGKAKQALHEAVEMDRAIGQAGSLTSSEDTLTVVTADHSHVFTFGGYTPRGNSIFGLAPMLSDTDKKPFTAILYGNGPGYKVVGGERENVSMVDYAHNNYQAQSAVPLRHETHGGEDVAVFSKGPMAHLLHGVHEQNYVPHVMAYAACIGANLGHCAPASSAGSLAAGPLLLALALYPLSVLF

[2] = target: Glyceraldehyde-3-phosphate dehydrogenase (Homo sapiens, UniProt P04406)
[3] = target: Alkaline phosphatase, placental type (Homo sapiens, UniProt P05187); experiment: PLAP enzyme inhibitors, confirmation, biochemical, luminescence (AID 1512); assay type: functional
Chain of Alkaline phosphatase, placental type (P05187 whole entry): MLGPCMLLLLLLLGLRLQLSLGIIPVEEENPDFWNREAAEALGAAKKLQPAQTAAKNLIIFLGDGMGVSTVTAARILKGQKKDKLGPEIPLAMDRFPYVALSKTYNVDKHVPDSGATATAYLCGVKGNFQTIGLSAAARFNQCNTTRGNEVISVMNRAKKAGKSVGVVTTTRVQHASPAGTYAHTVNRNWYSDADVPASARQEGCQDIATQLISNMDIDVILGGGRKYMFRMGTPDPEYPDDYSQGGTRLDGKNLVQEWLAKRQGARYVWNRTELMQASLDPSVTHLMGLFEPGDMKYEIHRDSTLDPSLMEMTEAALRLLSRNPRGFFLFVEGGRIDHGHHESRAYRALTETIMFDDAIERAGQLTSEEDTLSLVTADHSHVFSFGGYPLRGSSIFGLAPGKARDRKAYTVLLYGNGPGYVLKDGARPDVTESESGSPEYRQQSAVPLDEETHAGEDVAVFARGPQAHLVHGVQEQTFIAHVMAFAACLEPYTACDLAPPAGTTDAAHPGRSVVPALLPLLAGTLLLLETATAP

[4] = target: T2, Ubiquitin-conjugating enzyme E2 N (Homo sapiens, UniProt P61088); assay type: functional
T2 sequence (P61088 whole entry): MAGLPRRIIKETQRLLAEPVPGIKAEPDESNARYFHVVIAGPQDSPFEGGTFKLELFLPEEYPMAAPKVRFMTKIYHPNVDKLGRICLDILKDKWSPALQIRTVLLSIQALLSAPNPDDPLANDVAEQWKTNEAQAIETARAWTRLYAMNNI

[5] = target: T2, Ubiquitin-conjugating enzyme E2 N; assay type: functional; remark: listed apart in the source
[6] = target: T3, Bcl-2-related protein A1 (Mus musculus, UniProt Q07440); assay type: functional;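 also: confirmatory dose–response counterscreen on Bfl-1, used to check hits from a UBC13 polyubiquitin inhibitor campaign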
T3 sequence (Q07440 whole entry): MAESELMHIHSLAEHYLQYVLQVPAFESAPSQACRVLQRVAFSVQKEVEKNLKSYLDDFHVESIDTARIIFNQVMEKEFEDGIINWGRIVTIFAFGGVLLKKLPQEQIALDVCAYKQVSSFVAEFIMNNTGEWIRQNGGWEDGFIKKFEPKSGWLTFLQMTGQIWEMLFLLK

[7] = target: Peroxisome proliferator-activated receptor gamma/Nuclear receptor coactivator 1 (Homo sapiens, UniProt P37231); experiment: TR-FRET dose response biochemical High Throughput Screening assay for agonists of the steroid receptor coactivator 1 (SRC-1) recruitment by the peroxisome proliferator-activated receptor gamma (PPAR gamma): non-selective agonists. [Related pubchem assays (depositor defined):AID1300, AID1808, AID504735, AID631]; assay type: protein assay
Chain of Peroxisome proliferator-activated receptor gamma/Nuclear receptor coactivator 1 (P37231 whole entry): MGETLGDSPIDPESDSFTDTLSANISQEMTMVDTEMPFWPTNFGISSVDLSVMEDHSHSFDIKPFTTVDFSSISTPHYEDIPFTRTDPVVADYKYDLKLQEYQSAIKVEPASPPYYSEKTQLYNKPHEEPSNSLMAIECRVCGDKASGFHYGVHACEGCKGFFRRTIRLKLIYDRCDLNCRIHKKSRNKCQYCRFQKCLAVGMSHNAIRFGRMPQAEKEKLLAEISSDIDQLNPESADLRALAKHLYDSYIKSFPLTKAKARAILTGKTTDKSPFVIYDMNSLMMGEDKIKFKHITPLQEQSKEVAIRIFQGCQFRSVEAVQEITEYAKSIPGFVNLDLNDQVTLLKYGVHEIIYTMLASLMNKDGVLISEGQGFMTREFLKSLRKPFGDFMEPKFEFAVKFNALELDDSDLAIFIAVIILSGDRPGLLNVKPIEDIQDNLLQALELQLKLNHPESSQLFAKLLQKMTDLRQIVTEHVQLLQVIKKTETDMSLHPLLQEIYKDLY
Chain of Peroxisome proliferator-activated receptor gamma/Nuclear receptor coactivator 1 (Q15788 whole entry, further chain): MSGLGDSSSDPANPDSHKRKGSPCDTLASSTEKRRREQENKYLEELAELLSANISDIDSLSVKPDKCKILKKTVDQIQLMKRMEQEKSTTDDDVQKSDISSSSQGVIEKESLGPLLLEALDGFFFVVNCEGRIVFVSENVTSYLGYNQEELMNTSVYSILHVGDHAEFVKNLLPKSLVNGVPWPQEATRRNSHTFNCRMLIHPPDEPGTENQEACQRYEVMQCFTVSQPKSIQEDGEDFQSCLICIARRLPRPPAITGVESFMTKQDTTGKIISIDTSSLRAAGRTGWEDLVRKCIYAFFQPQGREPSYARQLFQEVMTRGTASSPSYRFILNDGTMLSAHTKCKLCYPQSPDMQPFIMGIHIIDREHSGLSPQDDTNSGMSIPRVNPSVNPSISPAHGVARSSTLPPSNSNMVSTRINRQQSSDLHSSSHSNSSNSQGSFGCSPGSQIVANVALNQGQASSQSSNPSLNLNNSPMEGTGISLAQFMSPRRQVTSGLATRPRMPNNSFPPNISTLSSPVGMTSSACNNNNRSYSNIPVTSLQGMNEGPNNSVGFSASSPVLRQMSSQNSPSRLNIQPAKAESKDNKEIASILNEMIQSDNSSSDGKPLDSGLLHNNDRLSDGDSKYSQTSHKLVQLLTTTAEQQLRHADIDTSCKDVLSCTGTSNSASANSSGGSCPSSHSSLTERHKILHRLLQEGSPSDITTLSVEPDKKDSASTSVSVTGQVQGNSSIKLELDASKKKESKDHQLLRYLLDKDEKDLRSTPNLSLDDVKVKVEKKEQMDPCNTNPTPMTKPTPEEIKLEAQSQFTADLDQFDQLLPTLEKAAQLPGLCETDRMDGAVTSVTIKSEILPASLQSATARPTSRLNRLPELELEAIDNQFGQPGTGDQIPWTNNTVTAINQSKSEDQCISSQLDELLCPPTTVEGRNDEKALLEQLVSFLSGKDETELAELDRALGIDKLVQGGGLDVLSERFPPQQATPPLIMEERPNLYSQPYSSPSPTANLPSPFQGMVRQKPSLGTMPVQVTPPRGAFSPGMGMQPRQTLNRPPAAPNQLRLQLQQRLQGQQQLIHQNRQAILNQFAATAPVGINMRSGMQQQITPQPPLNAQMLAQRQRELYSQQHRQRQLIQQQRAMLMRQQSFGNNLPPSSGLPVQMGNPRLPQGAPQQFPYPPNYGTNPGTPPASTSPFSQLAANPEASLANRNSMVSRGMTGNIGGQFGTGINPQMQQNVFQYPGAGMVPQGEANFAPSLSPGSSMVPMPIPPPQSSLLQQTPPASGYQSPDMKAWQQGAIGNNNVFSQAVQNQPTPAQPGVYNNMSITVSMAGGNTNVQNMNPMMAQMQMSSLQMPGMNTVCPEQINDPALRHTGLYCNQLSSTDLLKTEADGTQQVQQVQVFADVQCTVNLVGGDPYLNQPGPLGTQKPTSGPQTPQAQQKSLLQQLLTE

[8] = target: Peroxisome proliferator-activated receptor gamma/Nuclear receptor coactivator 2 (Homo sapiens, UniProt P37231); experiment: (§1) TR-FRET dose response biochemical High Throughput Screening assay for agonists of the steroid receptor coactivator 2 (SRC-2) recruitment by the peroxisome proliferator-activated receptor gamma (PPAR gamma): non-selective agonists. [Related pubchem assays: 1297, 1032 ]; assay type: functional
[9] = target: Peroxisome proliferator-activated receptor gamma/Nuclear receptor coactivator 3 (Homo sapiens, UniProt P37231); experiment: as §1, with “3 (SRC-3)” for “2 (SRC-2)”, “1301 (Confirmation screen.), 1048 (Primary screen.)]” for “1297, 1032 ]”; assay type: functional
Chain of Peroxisome proliferator-activated receptor gamma/Nuclear receptor coactivator 3 (P37231 whole entry): as the sequence (P37231 whole entry) above
Chain of Peroxisome proliferator-activated receptor gamma/Nuclear receptor coactivator 3 (Q9Y6Q9 whole entry, further chain): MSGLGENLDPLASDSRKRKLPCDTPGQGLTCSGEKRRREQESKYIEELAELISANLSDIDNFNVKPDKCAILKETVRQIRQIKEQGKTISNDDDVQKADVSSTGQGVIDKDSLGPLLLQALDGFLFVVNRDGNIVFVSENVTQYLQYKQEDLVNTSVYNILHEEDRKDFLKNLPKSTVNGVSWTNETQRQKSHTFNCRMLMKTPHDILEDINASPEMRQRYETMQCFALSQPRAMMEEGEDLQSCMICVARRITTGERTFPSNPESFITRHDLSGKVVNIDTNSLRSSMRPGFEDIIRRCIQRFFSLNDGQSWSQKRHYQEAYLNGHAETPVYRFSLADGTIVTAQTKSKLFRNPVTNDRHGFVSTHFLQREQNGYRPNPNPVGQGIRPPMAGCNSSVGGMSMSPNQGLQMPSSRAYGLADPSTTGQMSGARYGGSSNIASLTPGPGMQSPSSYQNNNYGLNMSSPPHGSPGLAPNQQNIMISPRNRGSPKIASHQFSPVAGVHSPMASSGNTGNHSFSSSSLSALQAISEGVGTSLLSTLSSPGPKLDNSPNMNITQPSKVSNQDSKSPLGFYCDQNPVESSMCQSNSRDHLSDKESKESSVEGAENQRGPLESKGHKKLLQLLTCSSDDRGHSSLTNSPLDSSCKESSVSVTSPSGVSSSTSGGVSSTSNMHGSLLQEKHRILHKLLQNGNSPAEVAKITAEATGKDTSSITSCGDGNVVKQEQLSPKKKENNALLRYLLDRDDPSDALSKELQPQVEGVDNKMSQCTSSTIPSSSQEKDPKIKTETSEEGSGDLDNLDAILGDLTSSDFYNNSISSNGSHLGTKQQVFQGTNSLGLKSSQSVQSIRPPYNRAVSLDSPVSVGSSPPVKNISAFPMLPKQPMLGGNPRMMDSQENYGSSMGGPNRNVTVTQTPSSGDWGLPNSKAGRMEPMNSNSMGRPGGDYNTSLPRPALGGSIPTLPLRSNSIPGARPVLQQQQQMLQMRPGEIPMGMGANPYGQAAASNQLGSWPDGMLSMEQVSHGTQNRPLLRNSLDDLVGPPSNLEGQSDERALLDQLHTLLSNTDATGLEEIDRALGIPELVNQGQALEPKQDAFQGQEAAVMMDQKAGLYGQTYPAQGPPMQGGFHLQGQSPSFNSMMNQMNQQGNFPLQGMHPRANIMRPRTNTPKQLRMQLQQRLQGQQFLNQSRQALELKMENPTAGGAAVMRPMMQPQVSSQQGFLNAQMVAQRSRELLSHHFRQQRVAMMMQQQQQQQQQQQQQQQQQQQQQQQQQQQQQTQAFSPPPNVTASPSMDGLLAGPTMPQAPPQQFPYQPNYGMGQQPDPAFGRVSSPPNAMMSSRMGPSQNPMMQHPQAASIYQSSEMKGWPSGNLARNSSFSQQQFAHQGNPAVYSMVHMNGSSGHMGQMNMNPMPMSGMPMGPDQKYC

[10] = target: Cytochrome P450 2D6 (Homo sapiens, UniProt P10635);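 also: CYP2D6 member of a cytochrome P450 panel assay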
[11] = target: Cytochrome P450 3A4 (Homo sapiens, UniProt P08684);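 also: CYP3A4 tested as one member of a cytochrome P450 panel screen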
Chain of Cytochrome P450 3A4 (P08684 whole entry): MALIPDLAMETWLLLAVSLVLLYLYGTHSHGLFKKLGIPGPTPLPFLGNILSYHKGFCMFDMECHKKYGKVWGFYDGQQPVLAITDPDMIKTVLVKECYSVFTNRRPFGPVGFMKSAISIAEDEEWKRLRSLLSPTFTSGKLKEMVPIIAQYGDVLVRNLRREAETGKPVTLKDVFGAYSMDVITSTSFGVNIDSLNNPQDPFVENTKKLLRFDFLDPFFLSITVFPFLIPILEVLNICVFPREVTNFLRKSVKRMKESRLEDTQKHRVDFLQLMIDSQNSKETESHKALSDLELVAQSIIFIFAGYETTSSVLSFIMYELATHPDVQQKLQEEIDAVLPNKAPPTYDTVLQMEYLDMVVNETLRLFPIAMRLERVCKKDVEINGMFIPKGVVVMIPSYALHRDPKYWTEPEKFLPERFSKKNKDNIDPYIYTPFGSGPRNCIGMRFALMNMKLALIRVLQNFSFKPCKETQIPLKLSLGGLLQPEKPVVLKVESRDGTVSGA

[12] = target: T4, Coagulation factor XII (Homo sapiens, UniProt P00748); experiment: FXIIa inhibitor potency, concentration-response, biochemical (AID 716); assay type: functional
T4 sequence (P00748 whole entry): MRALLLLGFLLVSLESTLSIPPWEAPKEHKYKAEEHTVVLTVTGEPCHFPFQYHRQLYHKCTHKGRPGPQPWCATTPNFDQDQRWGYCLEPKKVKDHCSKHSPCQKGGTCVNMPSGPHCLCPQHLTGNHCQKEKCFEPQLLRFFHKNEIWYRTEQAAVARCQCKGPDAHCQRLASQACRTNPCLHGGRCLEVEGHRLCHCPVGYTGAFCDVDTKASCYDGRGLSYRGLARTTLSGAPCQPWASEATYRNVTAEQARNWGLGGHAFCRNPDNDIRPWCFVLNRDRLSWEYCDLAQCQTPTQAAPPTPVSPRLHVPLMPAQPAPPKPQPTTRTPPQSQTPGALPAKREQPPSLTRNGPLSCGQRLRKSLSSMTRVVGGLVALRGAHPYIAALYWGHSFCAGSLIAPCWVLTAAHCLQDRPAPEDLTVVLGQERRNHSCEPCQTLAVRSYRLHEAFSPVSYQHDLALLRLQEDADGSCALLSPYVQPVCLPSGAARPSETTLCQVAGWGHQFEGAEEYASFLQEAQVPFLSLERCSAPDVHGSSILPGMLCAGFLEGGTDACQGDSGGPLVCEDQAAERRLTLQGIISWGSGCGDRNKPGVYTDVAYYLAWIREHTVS

[13] = target: Nucleotide-binding oligomerization domain-containing protein 2 (Homo sapiens, UniProt Q9HC29); experiment: NOD2 signaling inhibitors, cell-based, luminescence, uHTS, HEK293 (AID 1566); assay type: functional
[14] = system: HEK293; experiment: NOD2 signaling inhibitors in MDP-stimulated cells, cell-based, uHTS, luminescence (AID 2001); assay type: functional; conditions: Homo sapiens
[15] = system: HEK293; experiment: cells; assay type: functional, cell-based; conditions: Homo sapiens
[16] = system: HEK293; experiment: NOD1 signaling inhibitors, primary screen, cell-based, luminescence, uHTS (AID 1578); assay type: functional; conditions: Homo sapiens
[17] = system: HEK293; experiment: cells; assay type: functional, cell-based; conditions: Homo sapiens; remark: listed apart in the source
[18] = system: HEK293; experiment: cells; assay type: functional, cell-based; conditions: Homo sapiens; remark: listed apart in the source
[19] = target: Beta-galactosidase (Escherichia coli, UniProt Q8VNN2); experiment: beta-galactosidase enzyme inhibitors and activators, dose response, artefact control for CCR6 antagonist project, biochemical, E. coli enzyme, set 3 (AID 504712); assay type: functional
[20] = inhibitors of intracellular T. cruzi replication, confirmation, NIH3T3 host cells, beta-gal luminescence (AID 2044); assay type: functional, cell-based;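 also: intracellular parasites grown in NIH/3T3 mouse fibroblasts as host cells; luminescent beta-galactosidase reporter signal from transgenic T. cruzi replicating inside host cells; inhibitors lower the luminescence signal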
[21] = growth suppression of PTEN-null colon cells, dose response, cell-based, HCT116 PTEN knockout (AID 1047); assay type: functional;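 also: HCT116 colon tumor cells with PTEN knocked out; cells exposed to compound for 60 hours before readout; potency for loss of cell viability measured by luminescence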
[22] = cytotoxicity toward NIH3T3 fibroblasts, dose response, counter-screen, cell-based, ATP luminescence, mouse fibroblasts (AID 2010); assay type: functional;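 also: cells exposed to compound for about 90 hours before reading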
[23] = C. albicans growth with fluconazole, confirmation, fluorescence, retest (AID 2467); assay type: functional, cell-based
[24] = NIH-3T3 fibroblast cytotoxicity, dose response, cytotoxicity control, cell-based, fluorescence, Alamar Blue, secondary assay (AID 2327); assay type: functional;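 also: NIH-3T3 mouse fibroblasts cultured with fluconazole at 8 µg/mL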
[25] = growth suppression of beta-catenin-knockout colon cells, dose response, cell-based, HCT116, human colon tumor (AID 1045); assay type: functional;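 also: HCT116 colon tumor cells with beta catenin knocked out; cells exposed to compound for 60 hours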
[26] = control 3'UTR Renilla luciferase suppression, dose response, counter-screen for Shn3 inhibitor project, cell-based, Clone20-Shn3RL, cherry-picked (AID 624133); assay type: functional
[27] = Shn3 3'UTR reporter inhibitors, dose response, cell-based, Clone20 osteoblasts, firefly luciferase, cherry-picked (AID 624132); assay type: functional;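 also: firefly luciferase luminescence from reporter carrying the Shn3 3'UTR in osteoblasts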
[28] = target: T5, Apoptotic protease-activating factor 1 (Homo sapiens, UniProt O14727); assay type: functional
T5 sequence (O14727 whole entry): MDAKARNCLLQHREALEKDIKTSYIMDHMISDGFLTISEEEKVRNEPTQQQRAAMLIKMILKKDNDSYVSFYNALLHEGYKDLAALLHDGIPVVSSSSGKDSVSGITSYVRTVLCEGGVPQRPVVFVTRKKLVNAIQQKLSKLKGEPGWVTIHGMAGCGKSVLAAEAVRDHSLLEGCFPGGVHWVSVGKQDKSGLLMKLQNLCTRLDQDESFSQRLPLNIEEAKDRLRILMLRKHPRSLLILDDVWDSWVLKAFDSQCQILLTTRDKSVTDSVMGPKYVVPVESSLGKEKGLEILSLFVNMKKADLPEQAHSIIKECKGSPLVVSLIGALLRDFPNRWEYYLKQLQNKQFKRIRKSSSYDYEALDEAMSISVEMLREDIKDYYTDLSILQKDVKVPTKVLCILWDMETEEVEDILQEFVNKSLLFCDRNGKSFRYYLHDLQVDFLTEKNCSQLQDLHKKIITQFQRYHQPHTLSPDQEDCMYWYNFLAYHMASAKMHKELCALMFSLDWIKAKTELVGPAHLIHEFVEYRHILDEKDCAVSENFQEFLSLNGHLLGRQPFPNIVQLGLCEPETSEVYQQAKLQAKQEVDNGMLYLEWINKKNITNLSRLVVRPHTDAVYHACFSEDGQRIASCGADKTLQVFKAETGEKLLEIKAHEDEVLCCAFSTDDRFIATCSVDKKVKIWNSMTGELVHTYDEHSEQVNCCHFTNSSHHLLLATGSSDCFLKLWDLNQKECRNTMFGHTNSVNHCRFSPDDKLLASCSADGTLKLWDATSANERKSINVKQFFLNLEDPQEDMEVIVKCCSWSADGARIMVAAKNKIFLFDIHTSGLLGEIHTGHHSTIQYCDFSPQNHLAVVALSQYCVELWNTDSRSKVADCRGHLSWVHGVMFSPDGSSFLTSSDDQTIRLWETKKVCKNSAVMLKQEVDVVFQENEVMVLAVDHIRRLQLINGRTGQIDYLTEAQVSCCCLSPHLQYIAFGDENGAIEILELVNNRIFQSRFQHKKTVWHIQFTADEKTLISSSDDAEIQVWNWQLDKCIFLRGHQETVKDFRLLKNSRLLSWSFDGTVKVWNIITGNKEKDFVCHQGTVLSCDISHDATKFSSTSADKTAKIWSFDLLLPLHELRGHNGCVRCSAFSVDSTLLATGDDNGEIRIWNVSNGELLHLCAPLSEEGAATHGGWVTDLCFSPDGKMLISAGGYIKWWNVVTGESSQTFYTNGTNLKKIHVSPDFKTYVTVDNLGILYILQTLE

[29] = system: Escherichia coli; experiment: microbe, parasite or virus in culture
[30] = system: Escherichia coli; experiment: microbe, parasite or virus in culture; remark: listed apart in the source
[31] = target: Voltage-dependent T-type calcium channel subunit alpha-1H (Homo sapiens, UniProt O95180); assay type: functional;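 also: channel activity triggered by adding a high calcium stimulation buffer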

## Nc1nc(Cc2cccc(Br)c2)n(-c2ccccc2)n1
[1]
  IC50: > 100 µM (inactive)
[2]
  IC50: > 100 µM (not active)
[3]
  IC50: > 100 µM (inactive)

## CCCN1CCN(C(=O)C2CCN(c3ncnc4c3nc3n4CCCCC3)CC2)CC1
[4]
  IC50: 6.38 µM (active)
[5]
  IC50: 14.2 µM (active)
[6]
  IC50: > 20 µM (inactive)

## COc1cc2oc(=O)c(Br)c(C)c2c(OC)c1OC
[7]
  EC50: 13 µM (inactive)
[8]
  EC50: 10 µM (not active)
[9]
  EC50: > 79.4 µM (not active)

## C=CCNS(=O)(=O)c1cccc2cc(C(=O)O)c(O)cc12
[10]
  AC50: 22.4 µM (inconclusive)
[11]
  AC50: inconclusive

## Cc1ccccc1-c1ccc(/C=N/c2c(C)n(C)n(-c3ccccc3)c2=O)o1
[7]
  EC50: > 79.4 µM (inactive)
[8]
  EC50: 47.6 µM (not active)
[9]
  EC50: > 79.4 µM (not active)

## OC[C@@H]1O[C@@H](n2cnc3cncnc32)[C@@H](O)[C@H]1O
[11]
  AC50: inconclusive

## Cc1cc(C)c(C#N)c(SCC(=O)c2ccc(O)c(O)c2)n1
[1]
  IC50: 6.71 µM (active)
[3]
  IC50: 1.56 µM (active)

## C=CCn1c(COc2ccc(CC)cc2)nnc1SCC(=O)N(C)C1CCS(=O)(=O)C1 (stereo not given)
[12]
  IC50: > 50 µM (inactive)

## COc1ccc(-c2nnc3oc(O)c(CCO)c(C)c2-3)cc1
[1]
  IC50: > 100 µM (inactive)
[2]
  IC50: > 100 µM (not active)
[3]
  IC50: > 100 µM (inactive)

## CCOC(=O)c1sc2ncnc(N3CCN(C(=O)OCC)CC3)c2c1C
[12]
  IC50: > 50 µM (inactive)

## CC(/C=C/c1ccccc1)=N/NC(=O)c1cccc(Br)c1
[13]
  EC50: > 20 µM (inactive)
[14]
  IC50: 2.7 µM (active)
[15]
  IC50: > 20 µM (inactive)
[16]
  EC50: 3.65 µM (active)
[17]
  IC50: > 20 µM (inactive)
[18]
  IC50: > 20 µM (inactive)
[19]
  IC50: > 66.6 µM (inactive)

## N=C(N)N/N=C/c1ccc(OCc2ccc(Cl)cc2)cc1
[4]
  IC50: 12.4 µM (active)
[20]
  EC50: 1.93 µM (active)
[5]
  IC50: 13 µM (active)
[21]
  EC50: 3.74 µM (active)
[22]
  EC50: > 60 µM (inconclusive)
[23]
  EC50: > 38 µM (not active)
[24]
  EC50: > 150 µM (inactive)
[19]
  IC50: > 66.6 µM (inactive)
[25]
  EC50: 3.25 µM (active)
[6]
  IC50: > 20 µM (inactive)

## CS(=O)(=O)c1nc(-c2ccc(Br)cc2)cc(-c2ccccc2)c1C#N
[7]
  EC50: 7.5 µM (active)
[8]
  EC50: 8.09 µM (active)
[9]
  EC50: > 79.4 µM (not active)
[26]
  AC50: 6.77 µM (active)
[27]
  AC50: 4.72 µM (active)
[28]
  IC50: 2.07 µM (active)

## CC1CCN(S(=O)(=O)c2cccc(C(=O)NCc3cccs3)c2)CC1
[29]
  AC50: 106 µM (active)
[30]
  AC50: 40.9 µM (active)
[31]
  EC50: 2.96 µM (active)

## CCCCOC(=S)NC(=O)c1sc2ccccc2c1Cl
[11]
  AC50: inconclusive

## CCN(CC)S(=O)(=O)c1ccc(C(=O)NCC(c2cccs2)N2CCOCC2)cc1 (stereo not given)
[12]
  IC50: > 50 µM (inactive)
